According to patent EP0316212B1 (priority 1987, dated 1989):

What was measured:
Cellules de rate = test: Proliferation of mouse spleen cells (3H-thymidine incorporation); assay type: cell-based, souris
Description: (§1) Les anticorps utilisés sont des anticorps monoclonaux (AM) naturels (N5-12, N5-17, MO-1, 62-1, D-23) et proviennent d'hybridomes préparés par fusion des cellules de rate de souris n'ayant reçu aucune immunisation au préalable ni aucune stimulation mitogénique, avec le myélome de souris X63-Ag8. Les hybridomes TNP11 et TNP9 proviennent de fusion des cellules de rate de souris immunisées avec du Ficoll-TNP. Ils ont été maintenus en culture dans le milieu RPMI complet contenant 10% de sérum de veau foetal. Les hybridomes ont été injectés à des souris Balb/c préalablement traitées au pristane dans le but d'obtenir des ascites. Les AM ont été utilisés en tant que surnageants de culture ou en tant qu'ascites ou après isolement par chromatographie d'affinité sur une colonne de DNP-Sépharose. Ces anticorps ont été testés par test immunoenzymatique sur différents antigènes immobilisés sur des plaques de polystyrène et révélés par un anticorps anti-Ig de souris couplé à la β-galactosidase.
(§2) Le TNP a été couplé à la sérumalbumine bovine (BSA) par la méthode de Little & Eisen : 1ml de BSA à 20mg/ml dans le tampon carbonate-bicarbonate, 0,1M, pH 9,5, est ajouté à 1ml d'une solution d'acide trinitrobenzène sulfonique à 2 mg/ml dans le même tampon. La réaction est arrêtée après 30 à 120 minutes selon la substitution voulue par élimination de l'excès de réactifs sur échangeur d'ions (Dowex 1 x 4) puis dialyse. Des préparations de BSA substituée avec soit 14 ou 30 molécules de TNP par molécule de BSA (TNP₁₄-BSA ou TNP₃₀-BSA) ont été utilisées.
(§3) Le DNP-Glycine (DNP-Gly) et le DNP-Lysine (DNP-Lys) proviennent des Laboratoires Sigma et sont solubilisés directement dans le milieu de culture.
(§4) Les cellules proviennent de rate ou de thymus de souris. Les souris sont tuées par dislocation cervicale et leur rate ou leur thymus prélevé stérilement sont déposés dans du milieu RPMI. Les cellules sont dissociées, lavées une fois avec du milieu puis les globules rouges sont lysés au chlorure d'ammonium (0,9%) pendant 1 minute à froid puis les cellules sont relavées dans le milieu complet.
(§5) Le milieu de culture utilisé est du RPMI 1640 contenant du sérum de veau foetal (5%), du pyruvate de sodium (1mM), de la L-glutamine (1mM), du 2-mercaptoethanol (0,05 mM), de la pénicilline (100»g/ml) et de la streptomycine (50»g/ml).
(§6) 2x10⁵ cellules de chaque population cellulaire ou 4x10⁵ de cellules de rate non fractionnées sont distribuées sous un volume final de 200»l dans des boîtes de culture de 96 puits à fond plat en présence ou non des différents stimulateurs (ou mitogènes)(40»g/ml de lipopolysaccharide W Salmonella typhosa 2»g/ml de concanavaline A, ou des surnageants de culture contenant les anticorps monoclonaux à différentes dilutions ou une solution de TNP-BSA à des concentrations finales allant de 200ng à 200»g/ml). Les cultures sont effectuées pendant 48 à 96 heures à 37°C dans une atmosphère de 5% de CO2.
Six à huit heures avant la fin de la culture, 100»l de surnageant sont prélevés de chaque puits de culture afin d'être testés quant à leur contenu en anticorps. 10»l d'une solution de ³H-thymidine (activité spécifique = […]) à 50 »Ci/ml sont ajoutés à la culture qui est ensuite poursuivie. Les cellules de chaque puits sont collectées sur du papier filtre à l'aide d'un collecteur automatique et, après sèchage, les filtres sont comptés dans un liquide scintillant.

Cellules B = test: Proliferation of mouse B cells (3H-thymidine incorporation); assay type: cell-based, souris
Description: as §1, §2, §3, §4
(§7) Les sous-populations de cellules B ou T sont ensuite séparées comme suit : • Sous-population T : les cellules T sont obtenues à partir de la population de cellules de la rate par élimination des cellules portant des Ig à leur surface (sous-population B) sur des anticorps anti-Ig de souris immobilisés soit sur des billes magnétiques (Magnogel)® soit sur des boites de Pétri. • Sous-population B : les cellules B sont obtenues après détachement mécanique des supports dur lesquels elles étaient fixées par l'intermédiaire des anticorps anti-Ig (après l'isolement des cellules T), ou après élimination de la sous-population des cellules T de la population totale des cellules de rate par un traitement avec un anticorps anti-cellules T suivi de complément de cobaye. • Thymocytes : les thymocytes sont dissociés dans le RPMI et les cellules isolées sont lavées dans le milieu complet avant d'être mises en culture.
as §5, §6
(§8) Six à huit heures avant la fin de la culture, 100»l de surnageant sont prélevés de chaque puits de culture afin d'être testés quant à leur contenu en anticorps. […]

Cellules T = test: Proliferation of mouse T cells (3H-thymidine incorporation); assay type: cell-based, souris
Description: as §1, §2, §3, §4, §7, §5, §6, §8

[1] = test system: virus de la chorioméningite lymphocytaire (CML); test: organism not typed; assay type: cell-based; settings: préincubés avec les cellules L929
[2] = test system: virus de la chorioméningite lymphocytaire (CML); test: organism not typed; assay type: cell-based; settings: ajoutés après l'infection virale
[3] = test system: EMCV (Encephalomyocarditis Virus); test: microbe, parasite or virus in culture; assay type: cell-based
[4] = 12 (µg/ml), LPS* (mitogène ajouté après 48 heures)
[5] = 12 (µg/ml), conA* (mitogène ajouté après 48 heures)
[6] = 50 (µg/ml), LPS* (mitogène ajouté après 48 heures)
[7] = 50 (µg/ml), conA* (mitogène ajouté après 48 heures)

TNP-BSA
pourcentage d'augmentation (+) ou d'inhibition (-) de la prolifération (Cellules de rate; 200µg/ml, LPS* (mitogène ajouté après 48 heures avec le dérivé NP)): +30% | pourcentage d'augmentation (+) ou d'inhibition (-) de la prolifération (Cellules de rate; 200µg/ml, M (milieu seul)): +50% | pourcentage d'augmentation (+) ou d'inhibition (-) de la prolifération (Cellules de rate; 200µg/ml, conA* (mitogène ajouté après 48 heures avec le dérivé NP)): +46% | pourcentage d'augmentation (+) ou d'inhibition (-) de la prolifération (Cellules de rate; [4]): 0% | pourcentage d'augmentation (+) ou d'inhibition (-) de la prolifération (Cellules de rate; 12 (µg/ml), M (milieu seul)): +10% | pourcentage d'augmentation (+) ou d'inhibition (-) de la prolifération (Cellules de rate; [5]): +28% | pourcentage d'augmentation (+) ou d'inhibition (-) de la prolifération (Cellules de rate; [6]): +20% | pourcentage d'augmentation (+) ou d'inhibition (-) de la prolifération (Cellules de rate; 50 (µg/ml), M (milieu seul)): +30% | pourcentage d'augmentation (+) ou d'inhibition (-) de la prolifération (Cellules de rate; [7]): +30% | pourcentage d'augmentation (+) ou d'inhibition (-) de la prolifération (Cellules B; 200µg/ml, LPS* (mitogène ajouté après 48 heures)): +18% | pourcentage d'augmentation (+) ou d'inhibition (-) de la prolifération (Cellules B; 200µg/ml, M (milieu seul)): +100% | pourcentage d'augmentation (+) ou d'inhibition (-) de la prolifération (Cellules B; 3 (µg/ml), LPS* (mitogène ajouté après 48 heures)): 0% | pourcentage d'augmentation (+) ou d'inhibition (-) de la prolifération (Cellules B; 3 (µg/ml), M (milieu seul)): 0% | pourcentage d'augmentation (+) ou d'inhibition (-) de la prolifération (Cellules B; [4]): 0% | pourcentage d'augmentation (+) ou d'inhibition (-) de la prolifération (Cellules B; 12 (µg/ml), M (milieu seul)): 0% | pourcentage d'augmentation (+) ou d'inhibition (-) de la prolifération (Cellules B; [6]): 0% | pourcentage d'augmentation (+) ou d'inhibition (-) de la prolifération (Cellules B; 50 (µg/ml), M (milieu seul)): +50% | pourcentage d'augmentation (+) ou d'inhibition (-) de la prolifération (Cellules T; 0,7 (µg/ml), M (milieu seul)): 0% | pourcentage d'augmentation (+) ou d'inhibition (-) de la prolifération (Cellules T; 0,7 (µg/ml), conA* (mitogène ajouté après 48 heures)): -50% | pourcentage d'augmentation (+) ou d'inhibition (-) de la prolifération (Cellules T; 200µg/ml, M (milieu seul)): +30% | pourcentage d'augmentation (+) ou d'inhibition (-) de la prolifération (Cellules T; 200µg/ml, conA* (mitogène ajouté après 48 heures)): -50% | pourcentage d'augmentation (+) ou d'inhibition (-) de la prolifération (Cellules T; 3 (µg/ml), M (milieu seul)): 0% | pourcentage d'augmentation (+) ou d'inhibition (-) de la prolifération (Cellules T; 3 (µg/ml), conA* (mitogène ajouté après 48 heures)): -40% | pourcentage d'augmentation (+) ou d'inhibition (-) de la prolifération (Cellules T; 12 (µg/ml), M (milieu seul)): +20% | pourcentage d'augmentation (+) ou d'inhibition (-) de la prolifération (Cellules T; [5]): -20% | pourcentage d'augmentation (+) ou d'inhibition (-) de la prolifération (Cellules T; 50 (µg/ml), M (milieu seul)): +18% | pourcentage d'augmentation (+) ou d'inhibition (-) de la prolifération (Cellules T; [7]): -25% | % Inhibition ([1]; 0.12 mg/ml): 0% | % Inhibition ([1]; 0.25 mg/ml): 22% | % Inhibition ([1]; 0.5 mg/ml): 48% | % Inhibition ([1]; 1 mg/ml): 63% | % Inhibition ([2]; 0.5 mg/ml): 0% | % Inhibition ([2]; 1mg/ml): 17% | % Inhibition ([3]; 0,03 mg/ml): 0% | % Inhibition ([3]; 0,5 mg/ml): 8% | % Inhibition ([3]; 0,06 mg/ml): 0% | % Inhibition ([3]; 0,12 mg/ml): 0% | % Inhibition ([3]; 0,25 mg/ml): 0% | % Inhibition ([3]; 1,0 mg/ml): 4% | % Inhibition ([3]; 2,0 mg/ml): 14%
